Test results: patent US12478632B2, “Method for ameliorating progression of renal fibrosis and treating renal fibrosis by 5-(2′,4′-difluorophenyl)-salicylanilide derivatives” (National Defense Medical University, priority 2021, dated 2025)

Assays:
ASLN mice = assay: accelerated, severe lupus nephritis (ASLN) model; format: in vivo, NZB/WF1 mice
Method: To establish ASLN model mice, eight-week-old female NZB/WF1 mice (prior to autoantibody production) were given LPS (Sigma, MO, USA) (0.8 mg/kg body weight) twice a week by intraperitoneal injection. Seven days after the first injection of LPS, seven mice each received either LCC18 (10 mg/kg body weight) or vehicle (polyethylene glycol 400) (Sigma) daily via intraperitoneal injections. Another group of age-matched female NZB/WF1 mice were injected with saline and served as normal controls. All mice were sacrificed 5 weeks after induction of the disease. All animal experiments were performed in compliance with the NIH Guidelines for the Care and Use of Laboratory Animals with approval of the Institutional Animal Care and Use Committee of The National Defense Medical Center, Taipei, Taiwan.
Next, an ASLN model in NZB/W F1 mice, which mimics acute onset of severe LN in human, was validated potential therapeutic effects of LCC18 in the present invention. LN was induced in these mice by intermittent LPS injections to simulate SLE patients following bacterial or viral infections believed to act as environmental triggers. LCC18 was administered daily after the onset of the renal condition in ASLN mice (ASLN+LCC18 mice), while ASLN mice that received vehicle only (ASLN+Vehicle mice) were used as disease control mice.
Urine samples were collected for albuminuria assessment using the ratio of urine albumin/urine creatinine (Cr). Serum blood urea nitrogen (BUN) and Cr levels were determined.
On the other hand, renal tissues were fixed in formalin buffer and paraffin-embedded and stained with hematoxylin and eosin (H&E). Scoring of renal pathology was evaluated.
Levels of anti-dsDNA antibody (Alpha Diagnostic International, TX, USA) were measured using commercial ELISA kits.
Reactive oxygen species (ROS) levels in renal tissues were measured by a lucigenin-enhanced chemiluminescence assay.

[1] = system: spontaneous IgAN gddY (S-IgAN) mice; assay: spontaneous IgAN in gddY mice (S-IgAN) model; format: in vivo
Method: (§1) Two complementary mouse models of IgAN—a passive IgAN (P-IgAN) and a spontaneous IgAN in gddY mice (S-IgAN) were used to examine therapeutic effects of LCC18 on renal conditions of IgAN. […] Eight-week-old female C57BL/6 mice were injected with IgA anti-PC intraperitoneally and PnC intravenously for 14 or 28 consecutive days. Treatment with LCC18 (daily dose of 10 mg/kg body weight) dissolved in polyethylene glycol 400 (PEG 400) (Sigma-Aldrich, St. Louis, MO, USA) via an intraperitoneal (IP) route (P-IgAN+LCC18), and another group of IgAN mice was administered vehicle only (PEG 400) as the disease control group (P-IgAN+Vehicle). Mice were killed at days 14 and 28. Age-matched C57BL/6 mice injected with saline (P-WT+Saline) were used as normal controls; (2) a spontaneous IgAN in gddY (S-IgAN) mice, featuring severe glomerular and tubulointerstitial lesions, characterized by mesangial proliferation, and mesangial matrix expansion. LCC18 (S-IgAN+LCC18) or vehicle (S-IgAN+Vehicle) was administered to mice daily beginning at 8 weeks of age and continuing throughout the present invention. The gddY mice were sacrificed at 32 weeks. Age-matched BALB/c mice served as normal controls (S-WT). All animal experiments were conducted with approval of the Institutional Animal Care and Use Committee of the National Defense Medical Center, Taipei, Taiwan, and were conducted in accordance with NIH Guidelines for the Care and Use of Laboratory Animals.
(§2) For the P-IgAN model, the mice received daily at day 7 after disease induction, either LCC18 (10 mg/kg body weight) (P-IgAN+LCC18) or vehicle (P-IgAN+Vehicle) via IP throughout the study. For the S-IgAN model, LCC18 (S-IgAN+LCC18) or vehicle (S-IgAN+Vehicle) was administered to the mice daily throughout the study via IP, beginning at 8 weeks of age. […] This beneficial effect began on day 21 after disease induction and increased until day 28 when mice were sacrificed (FIG. 1C).

[2] = system: passively induced IgAN (P-IgAN) mice; assay: passively induced IgAN (P-IgAN) mouse model; format: in vivo, C57BL/6 mice
Method: as §1, §2

UUO mice = assay: unilateral ureteral obstruction (UUO) model mimicking renal tubulointerstitial lesions; format: in vivo; conditions: days 7 and 14
Text: To establish Unilateral ureteral obstruction (UUO) model for mimicking renal tubulointerstitial lesions (TILs), the mice (8-12 weeks of age) were anesthetized followed by a lateral incision on the back of the mouse. After the left ureter was exposed, it was tied with a silk suture at two points and permanently ligated. Sham-operated mice, which underwent an identical procedure but without ureteric ligation, were used as sham control. After 7 or 14 days, the mice were euthanized, and then, renal tissues, pelvis urine, and renal draining lymph nodes were collected.
LCC18 (10 mg/kg body weight) was administered intraperitoneally 1 day before (preventive group) or 3 days after (therapeutic group) the induction of UUO, or 1 day after the ligation of renal vessels in this model. Diseased mice that received only polyethylene glycol 400 (PEG 400) (Sigma-Aldrich, St. Louis, MO, USA) daily via intraperitoneal injections were used as the vehicle control group. All animal experiments were performed with the approval of the Institutional Animal Care and Use Committee of the National Defense Medical Center, Taiwan, in compliance with the NIH Guide for the Care and Use of Laboratory Animals.
Renal tissues were fixed in 10% buffered formalin, embedded in paraffin, and 3-μm thick sections were cut for haematoxylin and eosin (H&E) staining. Fifty glomeruli were examined in at least two renal tissue sections per slide by light microscopy at ×400 magnification. The percentage of glomeruli showing proliferation, or glomerular sclerosis was determined.
The quantitative analysis of the data obtained from hematoxylin and eosin (H&E) and Masson's trichrome staining of renal histopathological evaluation was used by quantitative imaging software (Pax-it; Paxcam, Villa Park, IL).
Further, in another embodiment, formalin-fixed and paraffin-embedded renal sections were incubated with primary antibodies followed by biotinylated secondary antibodies and avidin-biotin-peroxidase complex (Dako) for IHC staining.

[3] = system: bone marrow-derived DCs (BMDCs); assay: DC activation (CD80 in CD11c+ cells) by flow cytometry in IgA ICs-stimulated BMDCs; format: cell-based; conditions: LCC18-treated IgA ICs-stimulated BMDCs; FIG. 3A
Method: (§3) FIG. 3A-3H depict that LCC18 inhibits activation of DCs and systemic immune responses in IgAN model. The fluorescence intensity of CD80^+ in gated CD11c^+ cells (within gated CD11c^+ cells, grey-filled area created by staining with an isotype-matched control antibody) determined by flow cytometry (FIG. 3A). T-cell proliferation measured by [^3H]thymidine (FIG. 3B). BMDCs were incubated for 24 h with IgA ICs and co-cultured with OT-II CD′ T cells pulsed with OVA peptide. P-IgAN mouse model (FIG. 3C, FIG. 3D, FIG. 3E). S-IgAN mouse model (FIG. 3F, FIG. 3G, FIG. 3H). CD3 T-cell proliferation in splenocytes by [^3H]thymidine uptake (FIG. 3C and FIG. 3F). Numbers of CD4^+CD44^hiCD62L^lo (FIG. 3D and FIG. 3G) and CD8^+CD44^hiCD62L^lo-hi (FIG. 3E and FIG. 3H) memory T cells among splenic cells assessed by flow cytometry. WT, wild type. #Not detectable. BMDCs, bone marrow-derived dendritic cells. Bars show the mean±SD of 7 mice per group. *p<0.05, **p<0.01, ***p<0.005, ****p<0.001. ns, no significant difference. Data of FIG. 3B-FIG. 3H were analyzed using ANOVA (with Dunnett's multiple comparisons test).

CKDs' subject = assay: summary of effects in kidney and serum of the CKDs' subject; format: in vivo
Text: In summary, the LCC18 attenuates glomerular cell proliferation about 15˜35%, attenuates sclerosis and fibrosis, attenuates crescent formation about 40˜90%, attenuates fibrinoid necrosis about 40˜90% in a kidney of the CKDs' subject.
Further, the LCC18 can regulate renal function and albuminuria, downregulate serum levels of blood urea nitrogen (serum levels of BUN) about 50˜60%, serum levels of creatinine (serum levels of Cr) about 30˜40% and serum levels of IgG anti-dsDNA about 60˜70% of the CKDs' subject.

CD4+ T cells = assay: OVA-specific T cell proliferation assay (BMDCs co-cultured with OT-II T cells, [3H]thymidine); format: cell-based; conditions: OT-II T cells pulsed with OVA peptide; FIG. 3B
Method: as §3

[4] = in a kidney of the CKDs' subject

O=c1oc2ccc(-c3ccc(F)cc3F)cc2c(=O)n1-c1cccc(C(F)(F)F)c1 [LCC18, 6-(2,4-difluorophenyl)-3-(3-(trifluoromethyl)phenyl)-2H-benzo[e][1,3]oxazine-2,4(3H)-dione]
elevated serum levels of BUN (ASLN mice; ASLN+LCC18 vs ASLN+Vehicle, 10 mg/kg daily IP, FIG. 4A): significantly inhibited
elevated serum levels of Cr (ASLN mice; ASLN+LCC18 vs ASLN+Vehicle, 10 mg/kg daily IP, FIG. 4B): significantly inhibited
serum anti-dsDNA levels (ASLN mice; ELISA, vs ASLN+Vehicle, FIG. 4G): Greatly reduced
CD4+ T cells (CD4+CD44hiCD62Llo T memory cells) in splenocytes (ASLN mice; flow cytometry, FIG. 5A): inhibited
CD8+ T cells (CD8+CD44hiCD62Llo-hi T memory cells) in splenocytes (ASLN mice; flow cytometry, FIG. 5B): inhibited
Treg cell differentiation (CD4+CD25+Foxp3+) in splenocytes (ASLN mice; flow cytometry, FIG. 5C): enhanced
renal levels of ROS (ASLN mice; lucigenin-enhanced chemiluminescence, vs ASLN+Vehicle, FIG. 6): significantly reduced
albuminuria (urine albumin/urine Cr) (ASLN mice; vs ASLN+Vehicle, FIG. 4C): greatly reduced
pathological changes including intrinsic cell proliferation and crescent formation, H&E scoring (ASLN mice; vs ASLN+Vehicle, FIG. 4D-4F): significantly inhibited
serum levels of BUN ([1]; S-IgAN+LCC18 vs S-IgAN+Vehicle, daily IP from 8 weeks of age, FIG. 1D): benefited from treatment
serum levels of Cr ([1]; S-IgAN+LCC18 vs S-IgAN+Vehicle, daily IP from 8 weeks of age, FIG. 1E): benefited from treatment
increase in splenic number of CD4+CD44hiCD62Llo memory T cells ([1]; flow cytometry, FIG. 3G): inhibited
increase in splenic number of CD8+CD44hiCD62Llo-hi memory T cells ([1]; flow cytometry, FIG. 3H): inhibited
ROS levels in renal tissues ([1]; vs S-IgAN+Vehicle, FIG. 2B): Significantly reduced
T cell proliferation in splenocytes, [3H] thymidine uptake ([1]; vs S-IgAN+Vehicle, FIG. 3F): significantly decreased
urine levels of albumin (urine albumin/Cr ratio) ([1]; vs S-IgAN+Vehicle, beginning on week 24, continuing to week 32, FIG. 1F): therapeutic effect was also observed
serum levels of BUN ([2]; P-IgAN+LCC18 vs P-IgAN+Vehicle, 10 mg/kg daily IP from day 7, FIG. 1A): Significantly lower
serum levels of Cr ([2]; P-IgAN+LCC18 vs P-IgAN+Vehicle, 10 mg/kg daily IP from day 7, FIG. 1B): Significantly lower
increase in number of CD4+CD44hiCD62Llo memory T cells in the spleen ([2]; flow cytometry, FIG. 3D): inhibited
increase in number of CD8+CD44hiCD62Llo-hi memory T cells in the spleen ([2]; flow cytometry, FIG. 3E): inhibited
severity of renal lesions (glomerular cell proliferation, sclerosis in glomeruli), H&E ([2]; light microscopy, vs P-IgAN+Vehicle, FIG. 1G-1I): markedly reduced
ROS levels in renal tissues ([2]; vs P-IgAN+Vehicle, FIG. 2A): Significantly reduced
T cell proliferation in splenocytes, [3H] thymidine uptake ([2]; vs P-IgAN+Vehicle, FIG. 3C): significantly decreased
urine levels of albumin (urine albumin/Cr ratio) ([2]; vs P-IgAN+Vehicle, effect began on day 21 and increased until day 28, FIG. 1C): significantly decreased
renal fibrotic changes (H&E TILs score, Masson's trichrome fibrotic area) (UUO mice; 10 mg/kg IP, vs Vehicle+UUO, FIG. 7A-7D): greatly improved
increased renal expression of Col-III, IHC (UUO mice; vs UUO+Vehicle, FIG. 8): inhibited
increased renal expression of p-Smad2/3, IHC (UUO mice; vs UUO+Vehicle, FIG. 8): inhibited
fluorescence intensity levels of CD11c+CD80+ cells (activation marker for DCs) [3]: Significantly decreased
downregulation of serum levels of IgG anti-dsDNA (CKDs' subject; CKDs' subject): 60˜70%
downregulation of serum levels of blood urea nitrogen (BUN) (CKDs' subject; CKDs' subject): 50˜60%
downregulation of serum levels of creatinine (Cr) (CKDs' subject; CKDs' subject): 30˜40%
attenuation of crescent formation (CKDs' subject; [4]): 40˜90%
attenuation of fibrinoid necrosis (CKDs' subject; [4]): 40˜90%
attenuation of glomerular cell proliferation (CKDs' subject; [4]): 15˜35%
sclerosis and fibrosis (CKDs' subject; [4]): attenuates
CD4+ T cell proliferation induced by IgA ICs-stimulated BMDCs (CD4+ T cells): inhibited
